One may read the DC50 as the concentration at which degradation of the target reaches its halfway point. For orientation: Dmax means the greatest extent of degradation seen. Read a high Dmax as deep degradation.

From patent US12180193B2, “Accelerating fibrosarcoma protein degrading compounds and associated methods of use” (Arvinas Operations, Inc., priority 2020, dated 2024) come the findings set out here.

SMILES strings stand for the structures. A value given as a limit tells only on which side of the number the result lay.

One experiment has as its target T1, BRAF V600E (Homo sapiens, UniProt P15056, V600E).
T1 construct: expressed in transfected cells
Briefly: Cellular assay of target protein degradation, T-Rex 293 cells stably transfected with HA-BRAF_V600E (HA immunofluorescence, high content imaging). In kind it is cell-based. The note with it: T-Rex 293 HA-BRAF V600E; for DC50: half maximal degradation, read-out: BRaf V600E DC50; for Dmax: maximum degradation observed. How it is done:
Protocol for a cellular assay of target protein degradation (T-Rex 293 cells). T-Rex 293 cells were purchased from Invitrogen (#R71007), and stably transfected with a pcDNA4/TO_HA-BRAF_V600E construct, using 400 ug Zeocin for selection. V600e cells are plated in Dulbecco's Modified Eagle Medium (DMEM; Gibco #11965118) containing 10% fetal bovine serum (FBS; Gibco #16000044) and 1 ng/mL doxycycline (Selleckchem #4163) at a density of 5,000 cells/well in 50 μl on poly-D-lysine (PDL) coated, black clear bottom 96-well plates (Corning #354640) and incubated for 24 hours at 37° C. with 5% C02. The following day 50 ul of tested compound was added at 2x concentration in DMEM with a final concentration ranging from 1 μM to 0.1 nM in 0.1% dimethylsulfoxide (DMSO), and incubated for 24 hours at 37° C. with 5% CO2. At the end of the experimental treatment, the media was flicked off and cells washed once with phosphate-buffered saline (PBS)++ (PBS with CaCl and MgCl) and gently replacing with 200 μl PBS++ per well. The PBS++ was removed and 50 uL 4% paraformaldehyde (PFA; EMS #15710) in PBS++ was added, and incubate at room temperature for 15 minutes. Cells were washed once with PBS++ and 50 uL 0.1% Triton X-100 (Fisher #BP151-500) in PBS++ was added. Plate was incubate for 5 minutes at room temperature. Cells were was once with PBS++. Cells were blocked with 100 uL Licor blocking buffer (Licor #927-50000) for 1 hour at room temperature. Next, 50 uL of HA antibody (CST #3724) at 1:1000 in Licor blocking buffer was added, and the plate incubate overnight at 4° C. The plates were parafilmed to prevent evaporation. Plate was washed three times with 200 uL PBS++. Fifty microliters of HCS secondary antibody solution [1:1000 Hoechst (Invitrogen #H3570), 1:1000 phalloidin (Invitrogen #A22287) and 1:5000 Alexa fluor (Invitrogen #A11008)] was added and incubated for 1 hour. Plate was wash three times with 200 uL PBS++, and imaged on a high content reader (ImageXpress Micro XLS, Molecular Devices).
(§1) The concentration of exemplary compound that leads to half maximal degradation (DC50) as well as the maximum degradation observed (Dmax, conventionally expressed as a percentage of control), which are below in Table 2 for the exemplary compounds of Table 1.

For another experiment, the target named is T2, BRAF G466V (Homo sapiens, UniProt P15056, G466V).
T2 construct: expressed in transfected cells
Briefly: Cellular assay of target protein degradation, T-Rex 293 cells stably transfected with HA-BRAF G466V (HA immunofluorescence, high content imaging). In kind it is cell-based. The following applies: T-Rex 293 HA-BRAF G466V; for DC50: half maximal degradation, read-out: BRaf G466V DC50; for Dmax: maximum degradation observed. As to the method: Protocol for a cellular assay of target protein degradation (T-Rex 293 cells). T-Rex 293 cells were purchased from Invitrogen (#R71007), and stably transfected with a pcDNA4/TO_HA-BRAF G466V construct, using 400 ug Zeocin for selection. G466V cells are plated in Dulbecco's Modified Eagle Medium (DMEM; Gibco #11965118) containing 10% fetal bovine serum (FBS; Gibco #16000044) and 0.75 ng/mL doxycycline (Selleckchem #4163) at a density of 5,000 cells/well in 50 μl on poly-D-lysine (PDL) coated, black clear bottom 96-well plates (Corning #354640) and incubated for 24 hours at 37° C. with 5% CO2. The following day 50 ul of tested compound was added at 2x concentration in DMEM with a final concentration ranging from 30 nM to 3 pM in 0.1% dimethylsulfoxide (DMSO), and incubated for 24 hours at 37° C. with 5% CO2. At the end of the experimental treatment, the media was flicked off and cells washed once with phosphate-buffered saline (PBS)++ (PBS with CaCl and MgCl) and gently replacing with 200 μl PBS++ per well. The PBS++ was removed and 50 uL 4% paraformaldehyde (PFA; EMS #15710) in PBS++ was added, and incubate at room temperature for 15 minutes. Cells were washed once with PBS++ and 50 uL 0.1% Triton X-100 (Fisher #BP151-500) in PBS++ was added. Plate was incubate for 5 minutes at room temperature. Cells were was once with PBS++. Cells were blocked with 100 uL Licor blocking buffer (Licor #927-50000) for 1 hour at room temperature. Next, 50 uL of HA antibody (CST #3724) at 1:1000 in Licor blocking buffer was added, and the plate incubate overnight at 4° C. The plates were parafilmed to prevent evaporation. Plate was washed three times with 200 uL PBS++. Fifty microliters of HCS secondary antibody solution [1:1000 Hoechst (Invitrogen #H3570), 1:1000 phalloidin (Invitrogen #A22287) and 1:5000 Alexa fluor (Invitrogen #A11008)] was added and incubated for 1 hour. Plate was wash three times with 200 uL PBS++, and imaged on a high content reader (ImageXpress Micro XLS, Molecular Devices).
as §1

T2 sequence (P15056 whole entry G466V): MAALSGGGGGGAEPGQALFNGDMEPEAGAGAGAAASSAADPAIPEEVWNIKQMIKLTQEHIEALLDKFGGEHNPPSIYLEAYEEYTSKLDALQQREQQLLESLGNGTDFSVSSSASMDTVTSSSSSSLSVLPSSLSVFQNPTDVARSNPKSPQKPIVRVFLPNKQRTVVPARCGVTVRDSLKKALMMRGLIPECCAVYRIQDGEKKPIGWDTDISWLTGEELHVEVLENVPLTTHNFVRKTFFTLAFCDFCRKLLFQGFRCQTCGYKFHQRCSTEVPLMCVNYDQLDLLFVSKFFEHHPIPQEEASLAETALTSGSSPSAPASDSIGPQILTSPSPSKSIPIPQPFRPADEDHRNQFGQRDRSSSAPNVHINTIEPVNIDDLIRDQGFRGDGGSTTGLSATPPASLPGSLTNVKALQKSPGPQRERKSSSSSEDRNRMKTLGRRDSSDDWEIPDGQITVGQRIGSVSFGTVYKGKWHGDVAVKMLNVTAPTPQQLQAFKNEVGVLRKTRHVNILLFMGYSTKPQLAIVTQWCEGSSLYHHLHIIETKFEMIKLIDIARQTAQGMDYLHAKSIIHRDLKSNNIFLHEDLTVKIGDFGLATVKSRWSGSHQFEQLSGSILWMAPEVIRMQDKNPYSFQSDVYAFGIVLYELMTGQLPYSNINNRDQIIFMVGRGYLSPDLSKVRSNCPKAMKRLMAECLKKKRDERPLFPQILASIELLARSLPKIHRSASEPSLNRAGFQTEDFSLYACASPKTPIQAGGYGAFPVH
T1 sequence (P15056 whole entry V600E): as the sequence (P15056 whole entry G466V) above, with V466G, V600E counted along it

Take `O=C1CCC(N2Cc3cc(N4CC5(CC(CN6CCc7cc(-c8cnc9[nH]cc(C(=O)c%10c(F)ccc(NS(=O)(=O)N%11CC[C@@H](F)C%11)c%10F)c9c8)ccc7C6)C5)C4)ccc3C2=O)C(=O)N1` (stereo partly drawn) [Compound 8, (3R)-N-(3-{5-[2-({2-[2-(2,6-dioxopiperidin-3-yl)-1-oxo-2,3-dihydro-1H-isoindol-5-yl]-2-azaspiro[3.3]heptan-6-yl}methyl)-1,2,3,4-tetrahydroisoquinolin-6-yl]-1H-pyrrolo[2,3-b]pyridine-3-carbonyl}-2,4-difluorophenyl)-3-fluoropyrrolidine-1-sulfonamide]: the values for the DC50 on BRAF V600E and on BRAF G466V were 5 to 50 nM and 10 to 30 nM, respectively. Moreover, the Dmax at BRAF V600E and on BRAF G466V was 35 to 70% throughout.

With `O=C1CCC(N2Cc3cc(N4CCC5(CCN(CCc6ccc(-c7cnc8[nH]cc(C(=O)c9c(F)ccc(NS(=O)(=O)N%10CC[C@@H](F)C%10)c9F)c8c7)cc6)CC5)C4)ccc3C2=O)C(=O)N1` (stereo partly drawn) [Compound 10, (3R)-N-(3-{5-[4-(2-{2-[2-(2,6-dioxopiperidin-3-yl)-1-oxo-2,3-dihydro-1H-isoindol-5-yl]-2,8-diazaspiro[4.5]decan-8-yl}ethyl)phenyl]-1H-pyrrolo[2,3-b]pyridine-3-carbonyl}-2,4-difluorophenyl)-3-fluoropyrrolidine-1-sulfonamide], the values for the half-maximal degradation concentration (DC50) on BRAF V600E and at BRAF G466V were 5 to 50 nM and less than 1 nM, respectively. The greatest degradation seen (Dmax) on BRAF V600E and at BRAF G466V was 35 to 70% in each case.

Take `O=C1CCC(N2Cc3cc(N4CCC(CN5CCN(c6ccc(-c7cnc8[nH]cc(C(=O)c9c(F)ccc(NS(=O)(=O)N%10CC[C@@H](F)C%10)c9F)c8c7)cc6F)CC5)CC4)ccc3C2=O)C(=O)N1` (stereo partly drawn) [Compound 11, (3R)-N-[3-(5-{4-[4-({1-[2-(2,6-dioxopiperidin-3-yl)-1-oxo-2,3-dihydro-1H-isoindol-5-yl]piperidin-4-yl}methyl)piperazin-1-yl]-3-fluorophenyl}-1H-pyrrolo[2,3-b]pyridine-3-carbonyl)-2,4-difluorophenyl]-3-fluoropyrrolidine-1-sulfonamide]: the results for the 50% degradation concentration (DC50) at BRAF V600E and on BRAF G466V were 5 to 50 nM and less than 1 nM, respectively. Also, the Dmax on BRAF V600E and at BRAF G466V was 35 to 70% in each case.

Consider `COc1cc(N2CC3(C2)CN(CC2CCN(c4ccc(-c5cnc6[nH]cc(C(=O)c7c(F)ccc(NS(=O)(=O)N8CC[C@@H](F)C8)c7F)c6c5)cc4)CC2)[C@H]3C)cc2c1C(=O)N(C1CCC(=O)NC1=O)C2` (stereo partly drawn) [Compound 12, (3R)-N-(3-{5-[4-(4-{[(1S)-6-[2-(2,6-dioxopiperidin-3-yl)-7-methoxy-1-oxo-2,3-dihydro-1H-isoindol-5-yl]-1-methyl-2,6-diazaspiro[3.3]heptan-2-yl]methyl}piperidin-1-yl)phenyl]-1H-pyrrolo[2,3-b]pyridine-3-carbonyl}-2,4-difluorophenyl)-3-fluoropyrrolidine-1-sulfonamide], for which, at BRAF V600E, the half-maximal degradation concentration (DC50) was in the range of 5 to 50 nM and the Dmax was greater than 70%. Besides, on BRAF G466V, the half-maximal degradation concentration (DC50) lay within 1 to 10 nM and the Dmax fell in the range of 35 to 70%.

Regarding `O=C1CCC(N2Cc3cc(O[C@H]4C[C@@]5(COCCN5CC5CCN(c6ccc(-c7cnc8[nH]cc(C(=O)c9c(F)ccc(NS(=O)(=O)N%10CC[C@@H](F)C%10)c9F)c8c7)cc6)CC5)C4)ccc3C2=O)C(=O)N1` (stereo partly drawn) [Compound 13, (3R)-N-(2,4-difluoro-3-{5-[4-(4-{[(2r,4r)-2-{[2-(2,6-dioxopiperidin-3-yl)-1-oxo-2,3-dihydro-1H-isoindol-5-yl]oxy}-8-oxa-5-azaspiro[3.5]nonan-5-yl]methyl}piperidin-1-yl)phenyl]-1H-pyrrolo[2,3-b]pyridin-3-carbonyl}phenyl)-3-fluoropyrrolidine-1-sulfonamide], the DC50 at BRAF V600E was greater than 500 nM; at BRAF G466V, 10 to 30 nM. The Dmax is greater than 70% at BRAF V600E and 35 to 70% at BRAF G466V.

Consider `O=C1CCC(N2Cc3cc(O[C@H]4C[C@]5(COCCN5CC5CCN(c6ccc(-c7cnc8[nH]cc(C(=O)c9c(F)ccc(NS(=O)(=O)N%10CC[C@@H](F)C%10)c9F)c8c7)cc6)CC5)C4)ccc3C2=O)C(=O)N1` (stereo partly drawn) [Compound 14, (3R)-N-(2,4-difluoro-3-{5-[4-(4-{[(2s,4s)-2-{[2-(2,6-dioxopiperidin-3-yl)-1-oxo-2,3-dihydro-1H-isoindol-5-yl]oxy}-8-oxa-5-azaspiro[3.5]nonan-5-yl]methyl}piperidin-1-yl)phenyl]-1H-pyrrolo[2,3-b]pyridine-3-carbonyl}phenyl)-3-fluoropyrrolidine-1-sulfonamide], for which, on BRAF V600E, the half-maximal degradation concentration (DC50) is greater than 500 nM and the maximal degradation (Dmax) was in the range of 35 to 70%. Besides, the greatest degradation seen (Dmax) at BRAF G466V is less than 35%.

Consider `O=C1CCC(N2Cc3cc(N4CC[C@@H]4COc4ccc(-c5cnc6[nH]cc(C(=O)c7c(F)ccc(NS(=O)(=O)N8CC[C@@H](F)C8)c7F)c6c5)cc4)ccc3C2=O)C(=O)N1` (stereo partly drawn) [Compound 15, (3R)-N-{3-[5-(4-{[(2R)-1-[2-(2,6-dioxopiperidin-3-yl)-1-oxo-2,3-dihydro-1H-isoindol-5-yl]azetidin-2-yl]methoxy}phenyl)-1H-pyrrolo[2,3-b]pyridine-3-carbonyl]-2,4-difluorophenyl}-3-fluoropyrrolidine-1-sulfonamide], for which the 50% degradation concentration (DC50) at BRAF V600E is greater than 500 nM; on BRAF G466V it was greater than 30 nM.

`O=C1CCC(N2Cc3cc(N4CCC(N5C[C@@H]6C[C@H]5CN(c5ccc(-c7cnc8[nH]cc(C(=O)c9c(F)ccc(NS(=O)(=O)N%10CC[C@@H](F)C%10)c9F)c8c7)cc5)C6)CC4)ccc3C2=O)C(=O)N1` (stereo partly drawn) [Compound 16, (3R)-N-[3-(5-{4-[(1S,5S)-6-{1-[2-(2,6-dioxopiperidin-3-yl)-1-oxo-2,3-dihydro-1H-isoindol-5-yl]piperidin-4-yl}-3,6-diazabicyclo[3.2.1]octan-3-yl]phenyl}-1H-pyrrolo[2,3-b]pyridine-3-carbonyl)-2,4-difluorophenyl]-3-fluoropyrrolidine-1-sulfonamide]: the values for the DC50 at BRAF V600E and at BRAF G466V were 50 to 500 nM and 1 to 10 nM, respectively. Further, the Dmax on BRAF V600E and at BRAF G466V was 35 to 70% each time.

As for `O=C1CCC(N2Cc3cc(OC[C@@H]4CCN4c4ccc(-c5cnc6[nH]cc(C(=O)c7c(F)ccc(NS(=O)(=O)N8CC[C@@H](F)C8)c7F)c6c5)cc4)ccc3C2=O)C(=O)N1` (stereo partly drawn) [Compound 17, (3R)-N-[3-(5-{4-[(2S)-2-({[2-(2,6-dioxopiperidin-3-yl)-1-oxo-2,3-dihydro-1H-isoindol-5-yl]oxy}methyl)azetidin-1-yl]phenyl}-1H-pyrrolo[2,3-b]pyridine-3-carbonyl)-2,4-difluorophenyl]-3-fluoropyrrolidine-1-sulfonamide], the results for the 50% degradation concentration (DC50) at BRAF V600E and at BRAF G466V were greater than 500 nM and greater than 30 nM, respectively.
